Kd and stoichiometry N data for 2 compounds are collected here from article PMC12164754, “Phosphoglycerate dehydrogenase is required for kernel development and defines a predominant serine synthesis pathway in maize” (The Plant Cell, 2025).

In assay [1] the target is T1, DEK20 (phosphoglycerate dehydrogenase1, PGDH1) (Zea mays, UniProt A0A1D6DW07).
T1 construct: gene LOC103645840; recombinant His-DEK20
T1 sequence (A0A1D6DW07 1-387): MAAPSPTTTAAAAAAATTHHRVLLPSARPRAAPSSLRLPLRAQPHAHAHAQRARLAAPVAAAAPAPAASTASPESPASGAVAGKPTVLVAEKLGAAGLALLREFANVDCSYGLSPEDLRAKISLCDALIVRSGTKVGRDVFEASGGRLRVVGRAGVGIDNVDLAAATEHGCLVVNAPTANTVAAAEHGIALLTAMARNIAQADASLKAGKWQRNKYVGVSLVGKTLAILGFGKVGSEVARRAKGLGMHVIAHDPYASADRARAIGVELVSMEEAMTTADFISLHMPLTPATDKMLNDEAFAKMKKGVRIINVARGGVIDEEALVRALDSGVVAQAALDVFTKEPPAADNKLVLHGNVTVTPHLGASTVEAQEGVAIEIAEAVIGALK
Put plainly: microscale thermophoresis (MST). In kind it is binding.

For assay [2], the target named is T2, DEK20 (phosphoglycerate dehydrogenase1, PGDH1) (Zea mays, UniProt A0A1D6DW07, S282L).
T2 construct: gene LOC103645840; recombinant His-DEK20
T2 sequence (A0A1D6DW07 entry or part of it S282L): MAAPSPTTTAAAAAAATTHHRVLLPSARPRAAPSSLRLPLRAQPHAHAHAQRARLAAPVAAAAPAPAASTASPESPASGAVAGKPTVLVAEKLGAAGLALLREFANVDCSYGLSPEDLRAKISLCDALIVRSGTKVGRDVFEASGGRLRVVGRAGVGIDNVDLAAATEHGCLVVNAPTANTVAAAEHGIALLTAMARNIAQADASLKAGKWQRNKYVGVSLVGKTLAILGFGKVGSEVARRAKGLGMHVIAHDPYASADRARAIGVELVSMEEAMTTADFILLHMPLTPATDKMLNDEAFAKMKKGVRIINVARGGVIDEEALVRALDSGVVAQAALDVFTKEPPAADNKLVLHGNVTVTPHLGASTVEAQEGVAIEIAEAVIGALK
Put plainly: microscale thermophoresis (MST). The format is binding. (In general: Microscale thermophoresis detects binding through changes in fluorescence in a small temperature gradient.)

For assay [3], the target named is DEK20^WT (truncated DEK20, residues 1-387, substrate binding domain and nucleotide-binding domain) (maize (Zea mays)). The experiment in a line: crystal structure; apo form, 3.5 Å; about 16 mg/ml DEK20^WT crystallised in sodium nitrate, sodium phosphate dibasic, ammonium sulfate, HEPES/MOPS pH 7.5, glycerol, PEG 4000; solved by molecular replacement.

As to `NC(=O)c1ccc[n+]([C@@H]2O[C@H](COP(=O)([O-])OP(=O)(O)OC[C@H]3O[C@@H](n4cnc5c(N)ncnc54)[C@H](O)[C@@H]3O)[C@@H](O)[C@H]2O)c1` [NAD^+], the results for the Kd in assay [1] and in assay [2] were 32.4 µM and 8.11 µM, respectively.

Regarding “DEK20^WT (truncated DEK20, residues 1-387, substrate binding domain and nucleotide-binding domain) (domain or fragment)”, the stoichiometry N (commonly the number of molecules, sites or subunits per partner or assembly) in assay [3] came to 2.
